Experimental data reported in US12564596B2, “Agents and methods for modulating pathogen activity” (Griffith University, priority 2018, dated 2026).

Key:
[1] = system: HIV strains NL4-3 and NLAD8 adherence to CHO-CR3 cells; experiment: Fluorometric adherence assay, HIV to CHO cells; format: cell-based
Protocol: To test the ability of HIV to bind to CHO cells in a CR3 dependent fashion, and to test the ability of carbamazepine to block adherence of HIV to CHO-CR3 or CHO-neo cells, a fluorometric adherence assay was used, essentially as described by Jen et al (2013, supra). In this regard, CHO-neo or CHO-CR3 cells were seeded to a 96-well plate and allowed to grow to confluence. Fluorescently labelled HIV (10 ng of p24 HIV capsid protein equivalent of HIV in 100 μL of F12 culture media) were then used to challenge (2 h) CHO cells simultaneously with, or without, various concentrations of carbamazepine (as noted). Fluorescence (485/528 nm) intensity, corresponding to HIV cell adherence, was recorded using a Synergy HT Multi-mode Microplate Reader (BioTek Instruments, Winooski, VT USA). […] A Kruskal-Wallis k-sample analysis of variance was used to determine the statistical significance of the calculated mean of viral-cell adherence.
Having established the CR3-dependent binding of HIV to CHO cells, the inventors next examined the ability of carbamazepine to block the interaction of HIV strains NL4-3 and NLAD8 with the CR3 I-domain using fluorometric adherence assays. CR3-expressing (CHO-CR3) and non-expressing (CHO-neo) CHO cells, were seeded to microtiter plates, and HIV adherence was quantitated fluorometrically, as described by Jen et al. (2013, supra). […]

[2] = system: HIV strains NL4-3 and NLAD8 adherence to human PEX cells; experiment: Fluorometric adherence assay, HIV to PEX cells; format: cell-based; conditions: for decrease of cell association to PEX cells: 100 μM; for reduction in cell adherence to PEX cells: lowest concentration, printed 'down to 100 μM'
Protocol: The ability of carbamazepine to block adherence of HIV to human PEX cells was evaluated using a fluorometric adherence assay, essentially as described by Jen et al. (2013, supra). In this regard, PEX cells were seeded to a 96-well plate and allowed to grow to confluence. Fluorescently labelled HIV (10 ng of p24 HIV capsid protein equivalent of HIV in 100 μL of F12 culture media) were then used to challenge (2 h) PEX cells simultaneously with, or without, various concentrations of carbamazepine (as noted). Fluorescence (485/528 nm) intensity, corresponding to HIV cell adherence, was recorded using a Synergy HT Multi-mode Microplate Reader (BioTek Instruments, Winooski, VT USA). The assay was performed in triplicate on 3 separate occasions. A Kruskal-Wallis k-sample analysis of variance was used to determine the statistical significance of the calculated mean of viral-cell adherence.

[3] = system: N. gonorrhoeae adherence to primary human cervical epithelial (PEX) cells; experiment: Fluorometric adherence assay, gonococci to PEX cells; format: cell-based, Neisseria gonorrhoeae
Text: Briefly, six N. gonorrhoeae strains were used in the experiments. These included the laboratory strain, MS11; the low-passage isolates, 1291, UT38097, LT38885, PID-26, and SK92-679; all of which were transformed with the green fluorescent protein (GFP) expression plasmid, pCmGFP (GenBank accession number FJ172221) Srikhanta et al (2009, PLoS Pathog. 5(4):e1000400) and, thus, expressed GFP Edwards et al (2000, Infect Immun 68(9):5354-63). […] The ability of carbamazepine to block the adherence of N. gonorrhoeae to human, primary cervical epithelial (PEX) cells was evaluated using a fluorometric adherence assay. Assays were performed essentially as described by Jen et al (2013, supra). In this regard, PEX cells were seeded to a 96-well plate and allowed to grow to confluence. Gonococci were then used to challenge (1 h) PEX cells simultaneously with, or without, various concentrations of carbamazepine ([…], 10 nM, 1 μM, or 100 μM, as noted) or 1% DMSO (vehicle control). Uninfected PEX cells treated with 1% DMSO served as a control for background fluorescence. Fluorescence (485/528 nm) intensity, corresponding to bacterial adherence, was recorded using a Synergy HT Multi-mode Microplate Reader (BioTek Instruments, Winooski, VT USA). The assay was performed in triplicate on 3 separate occasions. A Student's t-test was used to determine the statistical significance of the calculated mean of bacterial adherence.
The ability of the compounds, or negative controls to block adherence of N. gonorrhoeae strain MS11gfp to PEX cells, CHO-CR3, or CHO-neo cells was evaluated using a fluorometric microtiter plate assay. Assays were performed essentially as described by Jen et al. (2013, Plos Pathog 9(5): e1003377). In this regard, GFP-expressing gonococci were used to challenge (1 h) PEX or CHO cells immediately following compound addition. Fluorescence (485/528 nm) intensity, corresponding to bacterial adherence, was recorded using a Synergy HT Multi-mode Microplate Reader (BioTek Instruments, Winooski, VT USA). Blank wells, devoid of PEX or CHO cells, also were inoculated with bacteria and served as a control for non-specific binding. The assay was performed in triplicate on 3 separate occasions. A Student's t-test was used to determine the statistical significance of the calculated mean of bacterial adherence.

[4] = molecular target: T1, human recombinant I-domain (rI-domain) of CD11b (Homo sapiens, UniProt P11215); experiment: Surface plasmon resonance binding to human rI-domain (KD); conditions: SPR, single cycle kinetics, 25° C., PBS; read-out: KD
T1 construct: made in house
T1 sequence (P11215 150-328 limits assumed): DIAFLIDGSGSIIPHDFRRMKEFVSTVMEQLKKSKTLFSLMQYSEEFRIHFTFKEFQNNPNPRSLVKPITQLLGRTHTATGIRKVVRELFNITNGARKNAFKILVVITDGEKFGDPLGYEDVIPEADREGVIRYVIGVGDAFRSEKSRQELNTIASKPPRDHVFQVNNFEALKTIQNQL

## NC(=O)N1c2ccccc2C=Cc2ccccc21 [carbamazepine, 5H-dibenzo[b,f]azepine-5-carboxamide]
[1]; 1 μM, 2 h post-challenge
  HIV adherence to CHO-CR3 cells compared with CHO-neo cells: not significantly different than that recorded for CHO-neo cells
[1]; 2 h
  HIV adherence to CHO-CR3, but not CHO-neo, cells with increasing concentrations: dose-dependent decrease
[2]; NL4-3, 2 h
  decrease of cell association to PEX cells: 88.53%±0.37
[2]; NL4-3
  reduction in cell adherence to PEX cells: 59.65%±0.41
[2]; NL4-3 and NLAD8, 2 h
  HIV adherence to PEX cells with increasing concentrations: dose-dependent decrease
[2]; NLAD8, 2 h
  decrease of cell association to PEX cells: 87.98%±0.48
[2]; NLAD8
  reduction in cell adherence to PEX cells: 59.65%±0.24
[3]; 1 h post-challenge
  gonococcal adherence to PEX cells with increasing concentrations: dose-dependent decrease
[3]; Neisseria gonorrhoeae, 1 h, read-out: inhibition of adherence to PEX cells
  inhibition at 1 µM: > 95%
[4]
  Kd: 2.12 nM
